Values joined by “and” are separate entries in the source; they are usually repeats but may differ in a detail not shown here. Equal values may be shown once.
Key:
[1] = test system: resistant strain of Didymella sp. (gummy stem rot); experiment: Petri dish test (zone of inhibition), radial growth, resistant strain of Didymella sp.; type: cell-based
Procedure: (§1) Petri dish tests (i.e., zone of inhibition tests) were conducted to compare the efficacy of azoxystrobin against both sensitive/susceptible and resistant strains of Didymella sp. (gummy stem rot).
Petri dish tests (i.e., zone of inhibition tests) were conducted to compare four rates of three adjuvant compositions (ADJ1, AJD2, and ADJ3 (N-methylpyrrolidone)) on sensitive and resistant strains of Didymella at a fixed treatment rate with a FRAC Group 11 fungicide, azoxystrobin.
Petri dish tests (i.e., zone of inhibition tests) were conducted to compare the efficacy of azoxystrobin (a strobilurin, quinone outside inhibitor (QOI), and member of Fungicide Resistance Action Committee (FRAC) Group 11) against resistant strains of Didymella sp. (gummy stem rot). Various organic solvents (adjuvants) were utilized at varying rates (6 fluid ounces/acre or 3 ounces/acre).

[2] = test system: sensitive/susceptible strain of Didymella sp. (gummy stem rot); experiment: Petri dish test (zone of inhibition), radial growth, sensitive/susceptible strain of Didymella sp.; type: cell-based; settings: for radial growth, 12 hours / radial growth, 24 hours / radial growth, 36 hours / radial growth, 18 hours / radial growth, 48 hours: sensitive strain
Procedure: as §1
Petri dish tests (i.e., zone of inhibition tests) were conducted to compare four rates of three adjuvant compositions (ADJ1, AJD2, and ADJ3 (N-methylpyrrolidone)) on sensitive and resistant strains of Didymella at a fixed treatment rate with a FRAC Group 11 fungicide, azoxystrobin. […]

[3] = test system: azoxystrobin resistant strain of Didymella; experiment: Watermelon Didamella (Gummy Stem Rot) field test, inoculated plants, disease severity rating; type: in vivo, Didymella on watermelon plants; set-up: key: based on counts of active fungal infection sites on leaves; settings: adjuvant rate 6 fl oz/acre
Procedure: Watermelon plants were inoculated with an azoxystrobin resistant strain of Didymella. The watermelon plants were then treated with: (a) a FRAC Group 11 fungicide, azoxystrobin alone; (b) azoxystrobin plus ADJ1; (c) azoxystrobin plus ADJ2; (d) azoxystrobin plus a typical commercial adjuvant (commercially available as Ad-Spray™); and (e) azoxystrobin plus chlorothalonil and commercial adjuvant (commercially available as Ad-Spray™). Disease severity ratings were taken and illustrated improved disease control of resistant strain with ADJ1 and ADJ2 compared to treatment with azoxystrobin alone, azoxystrobin plus commercial adjuvant, and azoxystrobin plus chlorothalonil and commercial adjuvant, especially at lower rates of azoxystrobin. Severity rating were based on multiple counts of active fungal infection sites on the leaves of the plants.

[4] = test system: natural strains of Didymella; experiment: Watermelon Didymella (Gummy Stem Rot) field test, natural infection, disease severity rating; type: in vivo, Didymella on watermelon plants; for disease severity, Fourth Week Rating: unit not given here; for disease severity, One Week Rating: unit not given here
Procedure: Watermelon plants were grown in normal field conditions subject to infection by natural strains of Didymella. The watermelons where then treated with: (a) a FRAC Group 11 fungicide, azoxystrobin alone; (b) ADJ1 alone; (c) azoxystrobin plus ADJ2; (d) azoxystrobin plus a typical commercial adjuvant (commercially available as Ad-Spray™); and (e) azoxystrobin plus chlorothalonil and commercial adjuvant. Disease severity ratings were taken and illustrated improved disease control of natural strains with ADJ1 compared to treatment with azoxystrobin alone or azoxystrobin plus commercial adjuvant, and equivalent control to azoxystrobin plus chlorothalonil and commercial adjuvant.

[5] = test system: natural strains of Cercospora (known to be resistant to azoxystrobin); experiment: Soybean Cercospora (Frog Eye Leaf Spot) field test, severity ratings; type: in vivo, Cercospora on soybean plants; settings: azoxystrobin 0.5×
Procedure: Soybean plants were grown in normal field conditions subject to infection by natural strains of Cercospora (known to be resistant to azoxystrobin) then treated with: (a) a FRAC Group 11 fungicide, azoxystrobin alone; (b) azoxystrobin plus ADJ1; (c) azoxystrobin plus ADJ2; (d) azoxystrobin plus a typical commercial adjuvant (commercially available as Preference®). Disease severity ratings were taken and illustrated improved disease control with ADJ1 and ADJ2 compared to treatment with azoxystrobin alone or azoxystrobin plus commercial adjuvant. Duncan Multiple Range treatment of the data (indicated by “a,” “b,” “c,”, etc.) confirmed statistically valid different between the treatment results.

[6] = test system: Morning Glory (MG); experiment: Herbicide burndown testing, Morning Glory; settings: in vivo; note: test concentration or dose not given here
Procedure: (§2) Burndown (BD) testing was conducted on Morning Glory (MG), Goosegrass (GG), Florida Beggarweed (FB) with an herbicide, Gramoxone® (paraquat—N,N′-dimethyl-4,4′-bipyridinium dichloride). Various amounts of Crop Oil Concentrate™ (COC) and an organic solvent adjuvant, Benzyl Acetate (BA), were utilized in conjunction with the herbicide. Crop Oil Concentrate™ (COC) is commonly used to enhance the deposition and spreading of herbicides on the leaf surface. The Crop Oil Concentrate™ (COC) included paraffinic petroleum oil, tall oil fatty acids and alkylphenol ethoxylates. The results are summarized in Table 20 and show a substantial increase in burndown rate when the organic solvent adjuvant is combined with an herbicide. The results also show a substantial increase in burndown rate compared to the combination of herbicide and Crop Oil Concentrate™ (COC).

[7] = test system: Goosegrass (GG); experiment: Herbicide burndown testing, Goosegrass; settings: in vivo; note: test concentration or dose not given here
Procedure: as §2

[8] = test system: resistant strains of Rhizoctonia solani (brown patch, stem rot, and/or root rot); experiment: Petri dish test (zone of inhibition), resistant strains of Rhizoctonia solani; type: cell-based; settings: organic solvent composition (where used) 6 fluid ounces/acre; for % Reduction in Radial Growth: 48 hours, vs untreated
Procedure: Petri dish tests (i.e., zone of inhibition tests) were conducted to compare the efficacy of tebuconazole (demethylation inhibitor, […], a triazole, and member of Fungicide Resistance Action Committee (FRAC) Group 3) against resistant strains of Rhizoctonia solani (brown patch, stem rot, and/or root rot). Various organic solvents (adjuvants) were utilized at 6 fluid ounces/acre and compared with just the active ingredient alone. The results are summarized in Table 19 and show the organic solvents provide a substantial resistant strain growth reduction compared to a FRAC Group 3 active ingredient utilized alone.

[9] = azoxystrobin 5.5 fl oz/acre, no additive
[10] = azoxystrobin 11 fl oz/acre, no additive
[11] = azoxystrobin 16 fl oz/acre, no additive
[12] = azoxystrobin 22 fl oz/acre, no additive
[13] = azoxystrobin application rate 5.5
[14] = azoxystrobin application rate 11
[15] = azoxystrobin application rate 22
[16] = azoxystrobin 5.5 fl oz/acre, adjuvant rate 6 fl oz/acre
[17] = azoxystrobin 11 fl oz/acre, adjuvant rate 6 fl oz/acre
[18] = azoxystrobin 0, additive alone (additive rate 0)
[19] = ADJ1 0.25× (adjuvant rate 4 fl oz/acre), Quadris 0
[20] = adjuvant 4 fl oz/acre (ADJ1 0.5×), Quadris 0
[21] = adjuvant 6 fl oz/acre ([…]), Quadris 0
[22] = adjuvant 8 fl oz/acre (1×), Quadris 0
[23] = adjuvant 2 fl oz/acre (0.25×), Quadris 0
[24] = adjuvant 4 fl oz/acre (0.5×), Quadris 0
[25] = adjuvant 8 fl oz/acre (ADJ1 1×), Quadris 0
[26] = azoxystrobin 0, adjuvant only 6 fl oz/acre

Structure (SMILES): CO/C=C(/C(=O)OC)c1ccccc1Oc1cc(Oc2ccccc2C#N)ncn1 [azoxystrobin]
- radial growth, 12 hours [1, 9]: 31 cm
- radial growth, 24 hours [1, 9]: 48 cm
- radial growth, 12 hours [1, 10]: 30 cm
- radial growth, 24 hours [1, 10]: 48 cm
- radial growth, 12 hours [1, 11]: 29 cm
- radial growth, 24 hours [1, 11]: 47 cm
- radial growth, 12 hours [1, 12]: 22 cm
- radial growth, 24 hours [1, 12]: 28 cm
- radial growth, 12 hours [2, 9]: 15.3 cm
- radial growth, 24 hours [2, 9]: 24.9 cm
- radial growth, 36 hours [2, 9]: 34.3 cm
- radial growth, 12 hours [2, 10]: 12.5 cm
- radial growth, 24 hours [2, 10]: 16.9 cm
- radial growth, 36 hours [2, 10]: 23.6 cm
- radial growth, 12 hours [2, 11]: 13.4 cm
- radial growth, 24 hours [2, 11]: 20 cm
- radial growth, 36 hours [2, 11]: 28 cm
- radial growth, 12 hours [2, 12]: 15.8 cm
- radial growth, 24 hours [2, 12]: 22.9 cm
- radial growth, 36 hours [2, 12]: 31.9 cm
- disease severity, Fourth Week Rating [3, 13]: 82.8
- disease severity, One Week Rating [3, 13]: 9.2
- disease severity, Third Week Rating [3, 13]: 63.3
- disease severity, Two Week Rating [3, 13]: 16.9
- disease severity, Fourth Week Rating [3, 14]: 65.7
- disease severity, One Week Rating [3, 14]: 13.3
- disease severity, Third Week Rating [3, 14]: 42
- disease severity, Two Week Rating [3, 14]: 16.7
- disease severity, Fourth Week Rating [3, 15]: 16.3
- disease severity, One Week Rating [3, 15]: 1.1
- disease severity, Third Week Rating [3, 15]: 4.8
- disease severity, Two Week Rating [3, 15]: 0.2
- disease severity, Fourth Week Rating [4, 16]: 80.8
- disease severity, One Week Rating [4, 16]: 2.1
- disease severity, Third Week Rating [4, 16]: 59.4
- disease severity, Two Week Rating [4, 16]: 6.6
- disease severity, Fourth Week Rating [4, 17]: 76.8
- disease severity, One Week Rating [4, 17]: 1.1
- disease severity, Third Week Rating [4, 17]: 49.5
- disease severity, Two Week Rating [4, 17]: 0
- Severity Ratings, August 31/Upper leaf [5]: 10.3
- Severity Ratings, September 7/bottom leaf [5]: 35.5
- Severity Ratings, September 7/higher Leaf [5]: 16.3
- Severity Ratings, September 7/middle leaf [5]: 3.2
- Severity Ratings, September 13/bottom leaf [5]: 18
- Severity Ratings, September 20/higher leaf [5]: 11.3

Structure (SMILES): C[n+]1ccc(-c2cc[n+](C)cc2)cc1 [Paraquat]
- BD (MG) (%) [6]: 51% and 50% and 81%
- BD (GG) (%) [7]: 72% and 60% and 100%

Structure (SMILES): CN1CCCC1=O [ADJ3, N-methylpyrrolidone]
- radial growth, 12 hours [1, 18]: 27 cm
- radial growth, 24 hours [1, 18]: 39 cm
- radial growth, 12 hours [2, 18]: 22.8 cm
- radial growth, 24 hours [2, 18]: 41 cm
- radial growth, 36 hours [2, 18]: 54.1 cm

Structure (SMILES): CC(=O)OCc1ccccc1 [ADJ1, benzyl acetate]
- radial growth, 18 hours [1, 19]: 20.6 cm
- radial growth, 24 hours [1, 19]: 30.2 cm
- radial growth, 48 hours [1, 19]: 51.2 cm
- radial growth, 18 hours [1, 20]: 22.6 cm
- radial growth, 24 hours [1, 20]: 28.5 cm
- radial growth, 48 hours [1, 20]: 53.9 cm
- radial growth, 18 hours [1, 21]: 18.9 cm
- radial growth, 24 hours [1, 21]: 23.4 cm
- radial growth, 48 hours [1, 21]: 45.9 cm
- radial growth, 18 hours [1, 22]: 16.7 cm
- radial growth, 24 hours [1, 22]: 10.9 cm
- radial growth, 48 hours [1, 22]: 44.4 cm
- radial growth, 12 hours [1, 18]: 25 cm
- radial growth, 24 hours [1, 18]: 30 cm
- growth reduction, in words ([1]; text of Example 2): some efficacy but not at a commercial level control
- radial growth, 18 hours [2, 23]: 19.9 cm
- radial growth, 24 hours [2, 23]: 24.9 cm
- radial growth, 36 hours [2, 23]: 39.3 cm
- radial growth, 48 hours [2, 23]: 47.9 cm
- radial growth, 18 hours [2, 24]: 17 cm
- radial growth, 24 hours [2, 24]: 23.7 cm
- radial growth, 36 hours [2, 24]: 32.3 cm
- radial growth, 48 hours [2, 24]: 46 cm
- radial growth, 18 hours [2, 21]: 15.7 cm
- radial growth, 24 hours [2, 21]: 26.1 cm
- radial growth, 36 hours [2, 21]: 38.8 cm
- radial growth, 48 hours [2, 21]: 48.1 cm
- radial growth, 18 hours [2, 25]: 15.7 cm
- radial growth, 24 hours [2, 25]: 21.3 cm
- radial growth, 36 hours [2, 25]: 40.6 cm
- radial growth, 48 hours [2, 25]: 50.1 cm
- radial growth, 12 hours [2, 18]: 24 cm
- radial growth, 24 hours [2, 18]: 41.1 cm
- radial growth, 36 hours [2, 18]: 54 cm
- control compared to azoxystrobin alone, in words ([2]; susceptible strain, equivalent of 2 oz/acre of ADJ1): comparable control
- disease reduction, in words ([4]; ADJ1 only): Some disease reduction
- disease severity, Fourth Week Rating [4, 26]: 48.7
- disease severity, One Week Rating [4, 26]: 1.1
- disease severity, Third Week Rating [4, 26]: 38.9
- disease severity, Two Week Rating [4, 26]: 8

Structure (SMILES): CC(C)(C)C(O)(CCc1ccc(Cl)cc1)Cn1cncn1 (stereo not shown) [Tebuconazole]
- Radial growth (cm) at 48 hours ([8]; Tebuconazole 2 oz/acre): 10.72 cm
- % Reduction in Radial Growth ([8]; Tebuconazole 2 oz/acre): 32%
- Radial growth (cm) at 48 hours ([8]; Tebuconazole 4 oz/acre): 7.8 cm
- % Reduction in Radial Growth ([8]; Tebuconazole 4 oz/acre): 50%
